Laboratory results published in patent US20220183279A1, “STABILIZED THIOKETONE FORMULATIONS” (priority 2019, published 2022).

Test: Effect of 5% by weight additives on prothioconazole in N,N-dimethyldecanamide, LED 350 nm, 24 hours
Type: physicochemical
Details: 0.4 g prothioconazole, 1.5 g N,N-dimethyldecanamide, 0.1 g stabiliser (5% by weight), 19 mW/cm^2, 24 hours, Comparison without additive 1539 ppm
Description: 0.4 g of prothioconazole, 1.5 g of N,N-dimethyldecanamide and 0.1 g of the respective stabiliser were combined in a 20 ml vial. The reaction mixtures were irradiated in a photoreactor with stirring (magnetic stirrer) using LED lamps (wavelength 350 nm, 19 mW/cm^2) for 24 hours. Samples were then taken and the respective content of compound III was determined by HPLC chromatography (column: Agilent Zorbax Eclipse Plus C18, 50×4.6 mm, 1.8 μm, mobile phase: acetonitrile/0.1% by weight of aqueous phosphoric acid, gradient at 2 ml/min, temperature: 45° C., external standard).

Compound III (ppm)	Compound
749 ppm	O[C@H](CS)[C@H](O)CS (racemic) [DL-Dithiothreitol]
2754 ppm	O=C(O)C=Cc1ccc(O)cc1 [4-Hydroxycinnamic acid]
1706 ppm	COc1ccc(O)cc1 [4-Methoxyphenol]
576 ppm	Cc1cc(C(C)(C)C)c(O)c(C(C)(C)C)c1 [Butylated hydroxytoluene (BHT), Butylated hydroxytoluene]
616 ppm	O=C(O)/C=C/c1ccc(O)c(O)c1 [Caffeic acid]
580 ppm	C=CCc1ccc(O)c(OC)c1 [Eugenol]
2059 ppm	COc1cc(/C=C/C(=O)O)ccc1O [Ferulic acid]
3700 ppm	O=C(O)c1cc(O)c(O)c(O)c1 [Gallic acid]
1102 ppm	O=C(O)CNC(=O)CCS [N-(Mercaptopropionyl)glycine]
1377 ppm	CCCCC(CC)COC(=O)C(C#N)=C(c1ccccc1)c1ccccc1 (stereo not drawn) [Octocrylene]

Compound	Compound III (ppm)
Cc1cc(O)cc2c1O[C@](C)(CCC[C@H](C)CCC[C@H](C)CCCC(C)C)CC2 [(+)-delta-Tocopherol]	81 ppm
(+/−)-alpha-Tocopherol	96 ppm
